Patent US5849322A, “Compositions and methods for buccal delivery of pharmaceutical agents” (Theratech, Inc., priority 1995, dated 1998)
Where “and” joins values, the source holds several entries; their conditions need not be identical. Equal values may be shown once. Read-outs that look alike come from different tables or passages of the source. Values belong to the molecule of their own block, whether it stands above or below them.

Columns and labels:
[1] = bile salts; cited from earlier work
[2] = Subcutaneous GLP-1 in fasting subjects (study by M. A. Nauck, FIG. 6), regression analysis; type: in vivo, human (fasting subjects)
Excerpt: This could be due to changes in bioavailability with dose, changes in clearance with dose, or a combination of both effects.

[3] = intravenous infusion, fasting individuals; cited from earlier work
[4] = Buccal bilayer tablet, double-blind placebo-controlled crossover: blood glucose, plasma insulin and glucagon; type: in vivo, human (healthy volunteers)
Excerpt: (§1) This example describes a double-blind, placebo-controlled, crossover comparison with random assignment to treatment sequence. […] Inclusion criteria for the volunteers were normal glucose tolerance, weight within 22<BMI<26, informed consent to participate in the study, and age between 20 and 60 years. Exclusion criteria were impaired glucose tolerance (2-hour glucose tolerance test; OGTT), gastrointestinal symptoms, ongoing medication or illness, acute infection, abnormal laboratory variables (hemoglobin, hematocrit, leucocytes, creatinine, bilirubin, calcium, potassium, sodium, alkaline phosphatase, gamma-GT, SGOT, SGPT, cholesterol, and triglycerides), and blood pressure greater than 185 mmHg systolic and/or 90 mmHg diastolic.
Subject numbers were allotted to the subjects in the order in which they were enrolled in the study. The number allotted to each subject determined the treatment sequence received. Subjects receiving treatment sequence 1 were treated with drug followed by placebo, and subjects receiving treatment sequence 2 were treated with placebo followed by drug.
(§2) Subjects were instructed to fast the night before a treatment. At the clinic, the subjects were given either a drug-containing bilayer tablet or placebo. At time 0 the bilayer tablet was applied to the gingiva with the active layer in contact with the tissue of the lip or inside of the cheek, and the subjects were placed in a rest position. The bilayer tablet was removed after 4.5 hours. No meals were allowed until a standard meal was given after 4.5 hours, and snacks were not permitted at any time. The standard meal contained 550 kcal, with 28%, 22%, and 50% of the energy from protein, fat, and carbohydrate, respectively. The test continued until 8 hours after application of the bilayer tablet, and the subjects left the hospital after 9 hours. The subjects were given their medications in the clinic by a nurse and were under observation at all times. Any symptoms or sensations disturbing or impairing the subjects' wellbeing during the experiments was carefully documented. Standard safety variables were determined under fasting conditions before each experiment. Blood glucose was monitored frequently and glucose infusion was available in case of hypoglycemia (<2.5 mmol/L). If any subject were to experience hypoglycemic symptoms, an extra blood glucose determination would be taken for safety reasons A washout period of 1-4 days was allowed between each experiment The study was completed within 6 weeks after enrollment of the first volunteer.
(§3) The peptide content of bilayer tablet samples was also analyzed by HPLC. […] Results were tested for normal distribution. A two-tailed t-test was carried out for normally distributed samples, and a Wilcoxon rank-sum test was used for data that were not normally distributed. All statistical tests used a level of significance of 0.05.

[5] = Plasma GLP-1(7-36)amide pharmacokinetics after buccal bilayer tablet; type: in vivo, human (healthy volunteers)
Excerpt: as §1, §2, §3
This was done in comparison to published data.
The data summarized in FIG. 5 were analyzed by AUC to provide an estimate of relative bioavailability by buccal administration as compared to subcutaneous administration.

[6] = in vivo; cited from earlier work
[7] = Buccal delivery of salmon calcitonin in dogs; type: in vivo, dog (mongrel dogs); set-up: AUC infinity, buccal / AUC infinity, iv: concentration or dose not given beside the values
Procedure: (§4) Bilayer tablets prepared according to Examples 13-15 were tested in in vivo experiments to determine their effectiveness in delivering peptide X systemically to dogs. Mongrel dogs each weighing 30-35 kg were conditioned for one month prior to use. The dogs were mildly sedated with acepromazine, but were awake for the duration of each experiment. Tablets were attached to the gingiva with the active layer contacting and in drug transfer relationship to the buccal mucosa of the upper lip. Nylon muzzles were used to prevent the animals from licking the tablets. In this model, normal salivary functions were preserved and no irrigation was required. The saphenous vein was catheterized to permit venous blood sampling. Blood samples were collected into citrate "[…]" tubes and immediately chilled on ice for 15 minutes and then centrifuged for 10 minutes at 3400 rpm. The resultant supernatant plasma was then collected and stored in capped polypropylene tubes at -70° C. until analyzed for peptide X content.
The procedure of Example 16 was followed with the exception that salmon calcitonin was substituted for peptide X, and tablet sizes and numbers were varied in some experiments.

[8] = colon of a baboon, cited from earlier work
[9] = Buccal delivery of insulin in dogs: blood glucose; type: in vivo, dog (mongrel dogs); details: 5 U/kg
Procedure: as §4
The procedure of Example 16 was followed with insulin-containing tablets prepared according to Example 6. The results shown in FIG. 8 are the average of 4 dogs, each given one 0.375 inch diameter buccal tablet containing 5 U/kg of drug. […] Beginning about 60 minutes after application, the blood glucose levels start to rise again, reaching normal levels about 120 minutes after application.

[10] = buccal bilayer tablet, 400 μg, FIG. 3
[11] = buccal bilayer tablet, 400 μg, FIG. 4
[12] = buccal bilayer tablet, 400 μg, fasting, FIG. 2
[13] = buccal bilayer tablet, 400 μg, FIG. 5
[14] = individual subjects 901-908 and mean, buccal, dose 119 nmol
[15] = average of 4 dogs, one 0.375 inch buccal tablet, FIG. 8

Molecule: C[C@H](CCC(=O)O)[C@H]1CC[C@H]2[C@@H]3[C@H](O)C[C@@H]4C[C@H](O)CC[C@]4(C)[C@H]3CC[C@]12C [chenodeoxycholate]
Order of effectiveness in enhancing nasal absorption of insulin [1]: deoxycholate≤chenodeoxycholate≤cholate≤ursodeoxychola te

Molecule: C[C@H](CCC(=O)O)[C@H]1CC[C@H]2[C@@H]3[C@H](O)C[C@@H]4C[C@H](O)CC[C@]4(C)[C@H]3C[C@H](O)[C@]12C [cholate]
Order of effectiveness in enhancing nasal absorption of insulin [1]: deoxycholate≤chenodeoxycholate≤cholate≤ursodeoxychola te

Molecule: C[C@H](CCC(=O)O)[C@H]1CC[C@H]2[C@@H]3[C@@H](O)C[C@@H]4C[C@H](O)CC[C@]4(C)[C@H]3CC[C@]12C [ursodeoxychola te]
Order of effectiveness in enhancing nasal absorption of insulin [1]: deoxycholate≤chenodeoxycholate≤cholate≤ursodeoxychola te

Bioavailability by subcutaneous administration relative to intravenous administration ([2]; fasting subjects): 38% | Clearance ([2]; subcutaneous, regression analysis of all the results): about 40 ml/min/kg
Molecule: GLP-1
Clearance [3]: ~15 mL/min/kg

Molecule: GLP-1(7-36)amide: gastrointestinal hormone processed from the preproglucagon gene; the naturally occurring form in humans
Plasma glucagon level at its low compared to placebo ([4]; about 30 minutes, buccal bilayer tablet, 400 μg, FIG. 4): significantly lower than the placebo group | Plasma glucagon level at its peak compared to placebo ([4]; after the low, buccal bilayer tablet, 400 μg, FIG. 4): significantly higher than the placebo group | Start of rise of plasma insulin level [4, 10]: 10 min | Time of decline of plasma insulin to normal [4, 10]: about 50 minutes | Time of peak plasma insulin level [4, 10]: about 20 minutes | Time from which plasma glucagon tracks the placebo group [4, 11]: about 150 minutes | Time of low of plasma glucagon level [4, 11]: about 30 minutes | Time of peak of plasma glucagon level [4, 11]: 60 to 75 min | Blood glucose levels compared to placebo controls ([4]; buccal bilayer tablet, 400 μg, fasting): significantly reduced blood glucose levels as compared to placebo controls | Lowest blood glucose level [4, 12]: about 3 mmol/L | Time by which blood glucose drops below that of the placebo group [4, 12]: ≤ 20 min | Time of lowest blood glucose level [4, 12]: about 50 minutes | Time of return of blood glucose to a normal level [4, 12]: about 90 minutes | Blood glucose levels of the two groups after the meal ([4]; drug vs placebo, after standard meal at 4.5 hours): indistinguishable after the meal | Plasma insulin level at 15 minutes after administration ([4]; relative to normal, buccal bilayer tablet, 400 μg, FIG. 3): about three time normal | Plasma GLP-1(7-36)amide level after the meal compared to placebo ([5]; after standard meal at 4.5 hours): approximately the same as that of the placebo group | Absorption through the buccal mucosa into the bloodstream ([5]; buccal bilayer tablet, 400 μg): rapid absorption through the buccal mucosa into the bloodstream | Start of rise of plasma GLP-1(7-36)amide level [5, 13]: ≤ 5 min | Time from which plasma GLP-1(7-36)amide tracks the placebo group [5, 13]: about 150 minutes | Time of peak plasma GLP-1(7-36)amide level [5, 13]: about 30 minutes | Time until which plasma GLP-1(7-36)amide declines rapidly [5, 13]: about 90 minutes | AUC [5, 14]: 11343 pmol·min/L and 3278 pmol·min/L and 8024 pmol·min/L and 9113 pmol·min/L and 7250 pmol·min/L and 8753 pmol·min/L and 8410 pmol·min/L | Bioavailability [5, 14]: 10.01% and 2.89% and 7.08% and 6.40% and 7.72% and 7.42% | Dose (second Dose column) [5, 14]: 11.91 nmol and 3.44 nmol and 9.57 nmol and 7.61 nmol and 9.19 nmol and 8.83 nmol | Effect on glucose-induced insulin release [6]: potentiates glucose-induced insulin release

AUC infinity, buccal ([7]; individual dogs (Dog ID#), 2 tablets, first figure of "buc/iv"): 139 and 66 and 84 and 26 and 64 and 38 | AUC infinity, iv ([7]; individual dogs (Dog ID#), second figure of "buc/iv"): 76 and 159 and 106 and 87
Molecule: Salmon Calcitonin
Buccal delivery into the bloodstream ([7]; bilayer tablet): delivered into the bloodstream of a warm-blooded animal by buccal delivery | ng Absorbed ([7]; individual dogs (Dog ID#), 2 buccal tablets, 1.27 or 0.71 cm^2): 72,958 ng and 16,461 ng and 20,989 ng and 6,535 ng and 23,379 ng and 17,614 ng

Molecule: heparin
Activity with bile salts in the formulation ([8]; with sodium cholate or deoxycholate): significant activity is detected | Transmucosal intestinal delivery (partial thromboplastin time prolongation or plasma lipase release) ([8]; without bile salt): not apparent

Molecule: insulin: insulin-containing tablets prepared according to Example 6 (human insulin)
Start of rise of blood glucose [9, 15]: about 60 minutes | Start of sharp drop of blood glucose [9, 15]: about 15 minutes | Time of low level of blood glucose [9, 15]: about 40 minutes | Time of return of blood glucose to normal levels [9, 15]: about 120 minutes | Control of blood glucose levels ([9]; buccal delivery): effective in controlling blood glucose levels
